Source: US10039759B2, “Quinolines as FGFR kinase modulators” (priority 2011, dated 2018)
Like-named read-outs stand apart in the source and are kept apart here.

Legend:
[1] = biological target: FGFR4 (h) (Homo sapiens, UniProt P22455); test: FGFR4 (enzymatic assay), TR-FRET; assay type: biochemical; conditions: FGFR 4 pIC50, 5 μM ATP, 60 min; pIC50 = -log IC50 (M); average if tested multiple times
[2] = biological target: FGFR2 (h) (Homo sapiens, UniProt P21802); test: FGFR2 (enzymatic assay), TR-FRET; assay type: biochemical; conditions: 60 min, pIC50 = -log IC50 (M), average if tested multiple times
[3] = biological target: KDR (h) (Homo sapiens, UniProt P35968); test: KDR (VEGFR2) (enzymatic assay), TR-FRET; assay type: biochemical; conditions: 120 min, pIC50 = -log IC50 (M), average if tested multiple times
Experimental: KDR (VEGFR2) (Enzymatic Assay)
In a final reaction volume of 30 μL, KDR (h) (150 ng/ml) was incubated with 50 mM HEPES pH 7.5, 6 mM MnCl2, 1 mM DTT, 0.1 mM Na3VO4, 0.01% Triton-X-100, 500 nM Btn-Flt3 and 3 μM ATP in the presence of compound (1% DMSO final). After incubation for 120 minutes at room temperature the reaction was stopped with 2.27 nM EU-anti P-Tyr, 7 mM EDTA, 31.25 nM SA-XL-665 and 0.02% BSA which was present for 60 minutes at room temperature. Time-Resolved Fluorescence Resonance Energy Transfer (TR-FRET) signal (ex340 nm. Em 620 nm, em 655 nm) was measured afterwards and results are expressed in RFU (Relative Fluorescence Units). In this assay, the inhibitory effect of different compound concentrations (range 10 μM to 0.1 nM) was determined and used to calculate an IC50 (M) and pIC50 (−log IC50) value.

[4] = biological target: T1, Ba/F3-FGFR1-transfected cells (Homo sapiens, UniProt P11362, cells depend on it, form not given); test: Ba/F3-FGFR1 (minus IL3 or plus IL3) cellular proliferation assay, Alamar Blue; assay type: cell-based; conditions: minus IL3, 24 hours
T1 construct: other: minus IL3; 24 hours, Alamar Blue
Experimental: Ba/F3-FGFR1 (Minus IL3 or Plus IL3) (Cellular Proliferation Assay)
(§1) In a 384 well plate, 100 nl of compound dilution in DMSO was sprayed before adding 50 μl cell culture medium (phenol red free RPMI-1640, 10% FBS, 2 mM L-Glutamine and 50 μg/ml Gentamycin) containing 20000 cells per well of Ba/F3-FGFR1-transfected cells. Cells were put in an incubator at 37° C. and 5% CO2. After 24 hours, 10 μl of Alamar Blue solution (0.5 mM K3Fe(CN)6, 0.5 mM K4Fe(CN)6, 0.15 mM Resazurin and 100 mM Phosphate Buffer) was added to the wells, incubated for 4 hours at 37° C. and 5% CO2 before RFU's (Relative Fluorescence Units) (ex. 540 nm., em. 590 nm.) were measured in a fluorescence plate reader.
(§2) In this assay, the inhibitory effect of different compound concentrations (range 10 μM to 0.1 nM) was determined and used to calculate an IC50 (M) and pIC50 (−log IC50) value. As a counterscreen the same experiment was performed in the presence of 10 ng/ml murine IL3.

[5] = biological target: FGFR3 (h) (Homo sapiens, UniProt P22607); test: FGFR3 (enzymatic assay), TR-FRET; assay type: biochemical; conditions: 60 min, pIC50 = -log IC50 (M), average if tested multiple times
[6] = biological target: Ba/F3-FGFR4-transfected cells (Homo sapiens, UniProt P22455); test: Ba/F3-FGFR4 cellular proliferation assay, Alamar Blue; assay type: cell-based; conditions: 24 hours
Experimental: Ba/F3-FGFR4 (Cellular Proliferation Assay)
as §1, with “Ba/F3-FGFR4-transfected” for “Ba/F3-FGFR1-transfected”
In this assay, the inhibitory effect of different compound concentrations (range 10 μM to 0.1 nM) was determined and used to calculate an IC50 (M) and pIC50 (−log IC50) value.

[7] = biological target: T2, Ba/F3-FGFR3-transfected cells (Homo sapiens, UniProt P22607, cells depend on it, form not given); test: Ba/F3-FGFR3 (minus IL3 or plus IL3) cellular proliferation assay, Alamar Blue; assay type: cell-based; conditions: minus IL3; 24 hours, Alamar Blue
T2 construct: BAF3-FGFR3 (MIN IL3 Alamar Blue- pIC50); other: minus IL3; 24 hours, Alamar Blue
Experimental: (§3) Ba/F3-FGFR3 (Minus IL3 or Plus IL3) (Cellular Proliferation Assay)
as §1, with “Ba/F3-FGFR3-transfected” for “Ba/F3-FGFR1-transfected”
as §2

[8] = biological target: T3, Ba/F3-KDR-transfected cells (Homo sapiens, UniProt P35968, cells depend on it, form not given); test: Ba/F3-KDR (minus IL3 or plus IL3) cellular proliferation assay, Alamar Blue; assay type: cell-based; conditions: minus IL3; 24 hours, Alamar Blue
T3 construct: BAF3-KDR (MIN IL3 Alamar Blue pIC50); other: minus IL3; 24 hours, Alamar Blue
Experimental: (§4) Ba/F3-KDR (Minus IL3 or Plus IL3) (Cellular Proliferation Assay)
as §1, with “Ba/F3-KDR-transfected” for “Ba/F3-FGFR1-transfected”
as §2

[9] = biological target: FGFR1 (h) (Homo sapiens, UniProt P11362); test: FGFR1 (enzymatic assay), TR-FRET; assay type: biochemical; conditions: FGFR 1 pIC50, 5 μM ATP, 60 min; pIC50 = -log IC50 (M); average if tested multiple times
[10] = tested on: Ba/F3-FGFR3-transfected cells; test: Ba/F3-FGFR3 (minus IL3 or plus IL3) cellular proliferation assay, Alamar Blue; assay type: cell-based; conditions: plus IL3 (10 ng/ml murine IL3, counterscreen); 24 hours, Alamar Blue; read-out: BAF3-FGFR3 (PLUS IL3 Alamar Blue pIC50) (converted)
Experimental: as §3
as §1, with “Ba/F3-FGFR3-transfected” for “Ba/F3-FGFR1-transfected”
as §2

[11] = tested on: Ba/F3-KDR-transfected cells; test: Ba/F3-KDR (minus IL3 or plus IL3) cellular proliferation assay, Alamar Blue; assay type: cell-based; conditions: plus IL3 (10 ng/ml murine IL3, counterscreen); 24 hours, Alamar Blue; read-out: BAF3-KDR (PLUS IL3 Alamar Blue pIC50) (converted)
Experimental: as §4
as §1, with “Ba/F3-KDR-transfected” for “Ba/F3-FGFR1-transfected”
as §2

[12] = 0.4 μM ATP, read-out: FGFR 2 pIC50 (converted)
[13] = 3 μM ATP, read-out: VEGFR KDR pIC50 (converted)
[14] = 25 μM ATP, read-out: hFGFR 3 pIC50 (converted)

T1 sequence (P11362 whole entry, change not shown): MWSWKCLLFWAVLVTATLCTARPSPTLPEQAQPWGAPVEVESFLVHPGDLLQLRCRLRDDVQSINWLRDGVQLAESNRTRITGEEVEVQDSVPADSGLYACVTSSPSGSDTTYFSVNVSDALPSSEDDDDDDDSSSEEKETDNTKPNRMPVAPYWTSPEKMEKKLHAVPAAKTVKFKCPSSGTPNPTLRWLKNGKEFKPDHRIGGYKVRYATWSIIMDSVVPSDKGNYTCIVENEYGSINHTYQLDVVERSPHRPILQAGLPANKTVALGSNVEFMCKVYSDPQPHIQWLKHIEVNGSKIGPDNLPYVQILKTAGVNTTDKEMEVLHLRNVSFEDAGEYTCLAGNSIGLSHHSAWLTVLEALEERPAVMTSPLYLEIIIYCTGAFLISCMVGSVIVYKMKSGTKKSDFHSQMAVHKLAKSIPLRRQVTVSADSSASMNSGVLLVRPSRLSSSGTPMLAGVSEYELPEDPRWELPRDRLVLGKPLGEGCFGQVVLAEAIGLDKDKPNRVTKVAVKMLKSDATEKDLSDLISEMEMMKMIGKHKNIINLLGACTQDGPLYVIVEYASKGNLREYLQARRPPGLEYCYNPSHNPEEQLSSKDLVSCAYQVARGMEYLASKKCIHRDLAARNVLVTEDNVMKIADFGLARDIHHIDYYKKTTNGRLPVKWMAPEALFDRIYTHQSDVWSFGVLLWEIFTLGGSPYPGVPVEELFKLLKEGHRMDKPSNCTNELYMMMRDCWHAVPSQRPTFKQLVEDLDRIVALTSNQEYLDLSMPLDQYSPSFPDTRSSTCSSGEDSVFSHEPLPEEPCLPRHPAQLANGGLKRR
Chain of FGFR2 (h) (P21802 22-821): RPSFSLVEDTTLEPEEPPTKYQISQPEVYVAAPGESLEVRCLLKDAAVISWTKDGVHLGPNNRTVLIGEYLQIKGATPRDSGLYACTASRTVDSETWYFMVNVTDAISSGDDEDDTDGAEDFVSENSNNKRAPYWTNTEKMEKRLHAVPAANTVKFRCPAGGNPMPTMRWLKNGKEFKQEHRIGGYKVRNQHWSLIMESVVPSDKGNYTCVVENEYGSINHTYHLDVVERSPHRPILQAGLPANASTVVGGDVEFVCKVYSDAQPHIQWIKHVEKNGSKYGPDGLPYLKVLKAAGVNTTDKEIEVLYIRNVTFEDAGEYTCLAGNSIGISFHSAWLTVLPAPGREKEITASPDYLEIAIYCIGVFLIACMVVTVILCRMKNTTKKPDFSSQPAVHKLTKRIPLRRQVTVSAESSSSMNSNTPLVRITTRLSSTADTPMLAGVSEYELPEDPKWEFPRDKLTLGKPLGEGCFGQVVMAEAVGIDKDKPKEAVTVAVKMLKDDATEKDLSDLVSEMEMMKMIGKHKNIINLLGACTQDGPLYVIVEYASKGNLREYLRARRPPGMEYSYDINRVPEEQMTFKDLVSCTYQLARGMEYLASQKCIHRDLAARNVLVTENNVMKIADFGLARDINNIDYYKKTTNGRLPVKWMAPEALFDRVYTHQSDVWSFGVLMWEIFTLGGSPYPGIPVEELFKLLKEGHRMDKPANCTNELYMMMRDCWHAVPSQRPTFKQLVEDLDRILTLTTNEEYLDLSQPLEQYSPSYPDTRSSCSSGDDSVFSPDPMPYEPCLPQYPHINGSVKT
T3 sequence (P35968 whole entry, change not shown): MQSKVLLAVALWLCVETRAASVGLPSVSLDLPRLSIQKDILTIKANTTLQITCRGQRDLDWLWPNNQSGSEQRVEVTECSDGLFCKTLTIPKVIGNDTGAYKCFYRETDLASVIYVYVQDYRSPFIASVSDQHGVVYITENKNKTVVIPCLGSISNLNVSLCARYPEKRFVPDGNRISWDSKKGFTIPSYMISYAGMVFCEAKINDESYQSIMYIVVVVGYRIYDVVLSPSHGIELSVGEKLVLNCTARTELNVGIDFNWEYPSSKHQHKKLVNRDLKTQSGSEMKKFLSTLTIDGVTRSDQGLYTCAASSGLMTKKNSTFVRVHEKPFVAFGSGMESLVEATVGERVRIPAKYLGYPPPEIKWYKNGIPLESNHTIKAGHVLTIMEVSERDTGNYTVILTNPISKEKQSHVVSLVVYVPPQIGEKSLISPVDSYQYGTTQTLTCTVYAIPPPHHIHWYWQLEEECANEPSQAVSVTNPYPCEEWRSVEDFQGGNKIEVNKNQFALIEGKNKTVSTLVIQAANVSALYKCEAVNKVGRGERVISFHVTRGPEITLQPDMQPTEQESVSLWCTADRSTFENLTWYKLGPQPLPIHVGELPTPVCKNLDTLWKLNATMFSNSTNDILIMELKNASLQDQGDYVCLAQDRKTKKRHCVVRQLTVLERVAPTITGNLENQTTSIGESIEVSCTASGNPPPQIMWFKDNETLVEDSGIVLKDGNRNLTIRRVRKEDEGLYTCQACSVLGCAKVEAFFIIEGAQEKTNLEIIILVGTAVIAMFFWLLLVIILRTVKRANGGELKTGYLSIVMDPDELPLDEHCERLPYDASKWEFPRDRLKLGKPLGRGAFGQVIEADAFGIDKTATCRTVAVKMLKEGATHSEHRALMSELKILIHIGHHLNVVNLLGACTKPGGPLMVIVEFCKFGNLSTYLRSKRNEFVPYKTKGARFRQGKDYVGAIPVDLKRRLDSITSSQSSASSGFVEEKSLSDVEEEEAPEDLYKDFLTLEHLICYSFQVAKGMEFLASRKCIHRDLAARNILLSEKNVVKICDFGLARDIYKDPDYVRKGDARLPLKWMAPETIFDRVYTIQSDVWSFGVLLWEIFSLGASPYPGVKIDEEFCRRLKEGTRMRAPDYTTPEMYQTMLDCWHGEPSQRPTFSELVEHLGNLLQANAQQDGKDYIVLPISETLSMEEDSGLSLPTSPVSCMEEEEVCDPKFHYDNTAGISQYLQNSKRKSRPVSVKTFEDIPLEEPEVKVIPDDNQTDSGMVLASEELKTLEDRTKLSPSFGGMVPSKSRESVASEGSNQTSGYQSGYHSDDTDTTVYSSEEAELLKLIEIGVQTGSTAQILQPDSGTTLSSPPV
T2 sequence (P22607 whole entry, change not shown): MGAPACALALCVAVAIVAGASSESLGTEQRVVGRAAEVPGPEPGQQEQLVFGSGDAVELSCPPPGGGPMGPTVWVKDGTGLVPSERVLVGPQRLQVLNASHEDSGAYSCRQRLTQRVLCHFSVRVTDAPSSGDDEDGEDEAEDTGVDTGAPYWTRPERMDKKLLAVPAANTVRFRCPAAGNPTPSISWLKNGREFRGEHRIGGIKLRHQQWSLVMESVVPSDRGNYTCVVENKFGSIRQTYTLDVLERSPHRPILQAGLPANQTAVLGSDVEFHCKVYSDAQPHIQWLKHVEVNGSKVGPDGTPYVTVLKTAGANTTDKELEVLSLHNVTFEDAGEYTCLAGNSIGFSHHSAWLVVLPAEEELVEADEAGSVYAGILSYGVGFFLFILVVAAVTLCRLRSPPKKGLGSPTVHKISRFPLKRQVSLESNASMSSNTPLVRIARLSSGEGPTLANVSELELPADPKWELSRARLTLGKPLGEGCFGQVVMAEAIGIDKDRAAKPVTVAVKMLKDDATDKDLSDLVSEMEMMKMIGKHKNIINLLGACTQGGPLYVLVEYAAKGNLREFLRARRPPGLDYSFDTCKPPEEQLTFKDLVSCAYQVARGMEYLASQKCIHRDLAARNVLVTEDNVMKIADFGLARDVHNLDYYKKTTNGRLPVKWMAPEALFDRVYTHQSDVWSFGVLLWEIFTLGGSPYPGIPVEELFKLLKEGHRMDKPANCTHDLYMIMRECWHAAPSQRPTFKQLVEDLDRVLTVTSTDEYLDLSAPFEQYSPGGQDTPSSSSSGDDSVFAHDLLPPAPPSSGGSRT
Chain of FGFR1 (h) (P11362 22-822): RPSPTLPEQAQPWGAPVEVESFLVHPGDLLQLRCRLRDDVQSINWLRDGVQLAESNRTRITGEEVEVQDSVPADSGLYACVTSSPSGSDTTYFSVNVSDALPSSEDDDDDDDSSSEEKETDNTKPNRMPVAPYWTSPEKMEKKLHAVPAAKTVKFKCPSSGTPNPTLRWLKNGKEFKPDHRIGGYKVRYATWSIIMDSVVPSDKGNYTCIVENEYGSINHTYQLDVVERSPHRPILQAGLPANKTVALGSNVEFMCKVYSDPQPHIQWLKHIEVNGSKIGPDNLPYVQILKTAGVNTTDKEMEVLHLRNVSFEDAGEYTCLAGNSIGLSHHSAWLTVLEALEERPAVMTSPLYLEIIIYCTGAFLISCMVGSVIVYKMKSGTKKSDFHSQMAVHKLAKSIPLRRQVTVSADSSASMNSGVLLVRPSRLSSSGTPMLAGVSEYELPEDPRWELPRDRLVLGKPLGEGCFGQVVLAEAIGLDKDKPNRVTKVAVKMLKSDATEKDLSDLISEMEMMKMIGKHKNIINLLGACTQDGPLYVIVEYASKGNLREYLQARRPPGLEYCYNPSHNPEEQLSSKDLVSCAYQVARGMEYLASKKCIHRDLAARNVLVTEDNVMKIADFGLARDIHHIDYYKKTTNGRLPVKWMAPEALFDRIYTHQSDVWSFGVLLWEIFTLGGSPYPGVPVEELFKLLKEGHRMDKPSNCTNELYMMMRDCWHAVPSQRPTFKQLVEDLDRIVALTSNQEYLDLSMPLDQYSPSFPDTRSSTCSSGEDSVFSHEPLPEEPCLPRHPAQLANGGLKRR

| Structure (SMILES) | IC50 [1] [M] | IC50 [2, 12] [M] | IC50 [3, 13] [M] | BAF3-FGFR1 (MIN IL3 pIC50) [4] | IC50 [5, 14] [M] | BAF3-FGFR 4 (pIC50) [6] | BAF3-FGFR3 (MIN IL3 Alamar Blue- pIC50) [7] | BAF3-KDR (MIN IL3 Alamar Blue pIC50) [8] | IC50 [9] [M] | IC50 [10] [nM] | IC50 [11] [nM] | IC50 ([2]; FGFR 2 pIC50, 0.4 μM ATP) [M] | IC50 ([3]; VEGFR KDR pIC50, 3 μM ATP) [M] | IC50 ([5]; hFGFR 3 pIC50, 25 μM ATP) [M] |
| --- | --- | --- | --- | --- | --- | --- | --- | --- | --- | --- | --- | --- | --- | --- |
| COc1cc(OC)cc(C(CC(N)=O)c2ccc3ncc(-c4cnn(C)c4)cc3c2)c1 (centres unmarked) [Compound 40] |  | 3.02e-07 | > 1e-06 | <5 | 2.19e-07 | <5 | 5.08 | <5 | 1.86e-07 | > 10000 | > 10000 |  |  |  |
| COc1cc(OC)cc(N(Cc2ncc[nH]2)c2ccc3ncc(C4=CCNCC4)cc3c2)c1 [Compound 46] | 1.7e-08 |  |  | 5.89 |  | 5.28 | 5.68 | <5 | 6.31e-09 |  |  | 3.63e-09 | 1.02e-06 | 2.45e-09 |
| COc1cc(OC)cc(/C(=C\C#N)c2ccc3ncc(-c4cnn(C)c4)cc3c2)c1 [Compound 30] | 3.02e-07 | 3.47e-08 | 3.31e-07 | 6.03 | 2.19e-08 | 5.25 | 5.89 | 5.55 |  |  |  |  |  |  |
| COc1cc(OC)cc(C(CCO)c2ccc3ncc(-c4cnn(C)c4)cc3c2)c1 (single isomer, unassigned) [Compound 36] | > 1e-06 | > 1e-06 | > 1e-06 |  | > 1e-06 |  |  |  |  |  |  |  |  |  |
| COc1cc(OC)cc(N(CCO)c2ccc3ncc(N4CCOCC4)cc3c2)c1 [Compound 54] | > 1e-06 | 1.82e-07 | > 1e-06 | <5 | 1.45e-07 | <5 | 5.16 | <5 | 3.8e-07 | > 10000 | > 10000 |  |  |  |

The next lines start with results.

| IC50 [1] [M] | IC50 [2, 12] [M] | IC50 [3, 13] [M] | BAF3-FGFR1 (MIN IL3 pIC50) [4] | IC50 [5, 14] [M] | BAF3-FGFR 4 (pIC50) [6] | BAF3-FGFR3 (MIN IL3 Alamar Blue- pIC50) [7] | BAF3-KDR (MIN IL3 Alamar Blue pIC50) [8] | IC50 [9] [M] | Structure (SMILES) | IC50 [10] [nM] | IC50 [11] [nM] | IC50 ([2]; FGFR 2 pIC50, 0.4 μM ATP) [M] | IC50 ([3]; VEGFR KDR pIC50, 3 μM ATP) [M] | IC50 ([5]; hFGFR 3 pIC50, 25 μM ATP) [M] |
| --- | --- | --- | --- | --- | --- | --- | --- | --- | --- | --- | --- | --- | --- | --- |
| 2.57e-07 | 3.09e-08 | 1.58e-07 | 5.65 | 1.86e-08 | 5.12 | 5.46 | <5 |  | COc1cc(OC)cc(C(=O)c2ccc3ncc(-c4cnn(C)c4)cc3c2)c1 [Compound 31] |  |  |  |  |  |
| ~1.35e-08 | 3.24e-09 | 5.25e-08 | 5.65 | 1.7e-09 | 6.00 | 6.61 | 5.18 |  | COc1cc(OC)cc(N(CC2CCC(=O)N2)c2ccc3ncc(-c4cnn(C)c4)cc3c2)c1 (centres unmarked) [Compound 44] | > 10000 | > 10000 |  |  |  |
| 1.38e-08 | 3.98e-09 | 1.7e-07 | 6.13 | 7.94e-09 | 5.87 | 5.82 | 5.15 | 2.75e-09 | COc1cc(OC)cc(N(CCNC(C)C)c2ccc3ncc(-c4ccccc4)cc3c2)c1 [Compound 51] | > 10000 | ~6030 |  |  |  |
| 8.71e-09 | 6.61e-09 | 1.29e-07 | 7.23 | 4.9e-09 | 6.81 | 7 | 5.57 | 2.51e-09 | COc1cc(OC)cc(N(CCNC(C)C)c2ccc3ncc(-c4cnn(CCO)c4)cc3c2)c1 [Compound 13] |  |  |  |  |  |
| 1.32e-07 | 2e-08 | > 1e-06 | 5.64 | 2.04e-08 | 5.37 | 5.77 | <5 | 9.12e-08 | COc1cc(OC)cc(N(Cc2ncc[nH]2)c2ccc3ncc(N4CCOCC4)cc3c2)c1 [Compound 55] |  |  |  |  |  |
| 1.66e-07 | 2.04e-08 | > 1e-06 | 6.43 | 3.89e-08 | 5.78 | 6.30 | <5 |  | COc1cc(OC)cc(C(CCNC(C)C)c2ccc3ncc(-c4cnn(C)c4)cc3c2)c1 (centres unmarked) [Compound 41] | > 10000 | > 10000 |  |  |  |
| 3.31e-09 | 2.09e-09 | 2.57e-07 | 6.63 | 1.45e-09 | 6.24 | 6.75 | <5 |  | COc1cc(OC)cc(N(Cc2ncc[nH]2)c2ccc3ncc(-c4ccn(C)c4)cc3c2)c1 [Compound 62] |  |  |  |  |  |
